Measurements from US20260234115A1, “LIPID COMPOUNDS, COMPOSITIONS, AND USES THEREOF” (Liberate Bio, Inc., priority 2023, published 2026).
Marks after values point to notes of the source that are not given here.

Key:
[1] = Plate-based fluorescence (RiboGreen) assay: nucleic acid cargo content and encapsulation efficiency of LNPs; type: physicochemical; conditions: for EE (%) N/P:6: LNP
Method: (§1) Lipids and active ingredients (e.g., RNA, DNA, etc.) were assembled into LNPs using microfluidic mixing. An ethanol phase was prepared by solubilizing ionizable lipids (i.e., lipid compounds), phospholipids (e.g., DSPC), cholesterol, and PEG lipids in ethanol, at predetermined mol % ratios given in Table 2. An aqueous phase was prepared by diluting a nucleic acid cargo (e.g., firefly luciferase mRNA) in an acidified buffer (pH 4.0 citrate buffer, 50 mM). A chip with microfluidic mixing architecture (e.g., toroidal mixer) was used to mix the two phases at predetermined flow rate ratios (e.g., 9 ml/min for the aqueous phase and 3 ml/min for the ethanol phase). Resulting LNPs comprising the lipids and encapsulating the nucleic acid cargo were dialyzed against PBS pH 7.4 for 2 hours at room temperature in a 20 kDa MWCO dialysis membrane. Then, PBS was refreshed to continue dialysis overnight at 2-8 TC. Upon completion of the buffer exchange, LNPs were optionally concentrated using a ultracentrifugal unit with a 10-100 kDa MWCO membrane.
c. Plate-Based Fluorescence (RiboGreen) Assay
Nucleic acid cargos in the LNPs were quantified by RiboGreen assay, against a nucleic acid standard curve. LNPs encapsulating nucleic acid cargo were mixed with 1× Tris-EDTA (TE) and 2% triton in TE, separately, to achieve dilutions required by the assay. Then, the samples were heated at 30° C. and vortexed at 300 rpm. Samples were plated into 96-well plates and RiboGreen reagent was added into each well. Following incubation in the dark, fluorescence was measured from the wells, and plotted against the standard curve. Nucleic acid concentration obtained from the Triton-treated samples were used for total cargo concentration quantification. Only TE diluted sample fluorescence values were used to determine the non-encapsulated (free) cargo, and their ratio was used to determine the encapsulation efficiency (EE %).

[2] = Dynamic light scattering: LNP particle size and PDI; type: physicochemical; conditions: for PDI N/P:6 / Size (nm) N/P:6: LNP
Method: as §1
d. Dynamic Light Scattering
LNPs were diluted with PBS pH 7.4 to predetermined dilution ranges based on the process step and LNP concentration. Following mixing, the particle size and PDI were measured by a dynamic light scattering instrument.

mouse organs = test: In vivo activity screening in mice: organ mean total flux (p/s) of luciferase activity after injection of F2 LNP pools (Table 6, FIG. 7A-7C); conditions: luciferase mRNA
Procedure, shortened: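 C57BL/6J mice given one tail-vein injection of pooled Formulation F2 LNPs carrying firefly luciferase mRNA (0.25-3 mg/kg) in PBS. At 4-6 h, s.c. D-luciferin given; organs imaged ex vivo by IVIS within 10-15 min, after saline cardiac perfusion. Mean total flux (p/s) per organ ROI.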

[3] = LNP compositions for in vivo mouse study, four formulations (F1-F4) pooled, or pools of four compounds
[4] = LNP compositions for in vivo mouse study, four formulations (F1-F4) of the lipid compound pooled, or pools of four compounds (sixteen compositions)
[5] = LNP compositions for Formulation F2 Study

EE % [1, 3] [%]	mRNA Content [1, 3] [µg/mL]	EE (%) N/P:6 ([1]; Formulation F1, N/P 6) [%]	EE (%) N/P:6 ([1]; Formulation F2, N/P 6) [%]	EE (%) N/P:6 ([1]; Formulation F3, N/P 6) [%]	EE (%) N/P:6 ([1]; Formulation F4, N/P 6) [%]	Particle Size (nm) [2, 4] [nm]	PDI [2, 3]	PDI N/P:6 ([2]; Formulation F1, N/P 6)	Size (nm) N/P:6 ([2]; Formulation F1, N/P 6) [nm]	PDI N/P:6 ([2]; Formulation F2, N/P 6)	Size (nm) N/P:6 ([2]; Formulation F2, N/P 6) [nm]	Compound	Organ Mean Total Flux Femur (mouse organs; Mouse 12, dose 0.5 mg/kg)	Organ Mean Total Flux Heart (mouse organs; Mouse 12, dose 0.5 mg/kg)	Organ Mean Total Flux Kidney (mouse organs; Mouse 12, dose 0.5 mg/kg)	Organ Mean Total Flux Liver (mouse organs; Mouse 12, dose 0.5 mg/kg)	Organ Mean Total Flux Lung (mouse organs; Mouse 12, dose 0.5 mg/kg)	Organ Mean Total Flux Muscle (mouse organs; Mouse 12, dose 0.5 mg/kg)	Organ Mean Total Flux Pancreas (mouse organs; Mouse 12, dose 0.5 mg/kg)	Organ Mean Total Flux Spleen (mouse organs; Mouse 12, dose 0.5 mg/kg)	further results
96	80	98	96	98	99	84.4	0.12	0.12	70 ± 0	0.08	88 ± 3	CCCCC/C=C\C/C=C\CCCCCCCC(=O)OCC(COC(=O)CCCCCCC/C=C\C/C=C\CCCCC)(COC(=O)CCC(CCCCCC)OC(=O)NCCN1CCCC1)COC(=O)CC12CC3CC(CC(C3)C1)C2 (stereo not drawn) [Compound 5, [2-[[2-(1-adamantyl)acetyl]oxymethyl]-2-[[(9Z,12Z)-octadeca-9,12-dienoyl]oxymethyl]-3-[4-(2-pyrrolidin-1-ylethylcarbamoyloxy)decanoyloxy]propyl](9Z,12Z)-octadeca-9,12-dienoate]									PDI N/P:6 ([2]; Formulation F3, N/P 6): 0.06; Size (nm) N/P:6 ([2]; Formulation F3, N/P 6): 97 ± 3 nm; PDI N/P:6 ([2]; Formulation F4, N/P 6): 0.16; Size (nm) N/P:6 ([2]; Formulation F4, N/P 6): 66 ± 3 nm
96	84	99	99	98	99	82.6	0.125	0.14	73 ± 7	0.07	82 ± 2	CCCCC/C=C\CCOC(=O)CCCCCC(=O)OCC(COC(=O)CCCCCCOC(=O)C(CCCC)CCCCCC)(COC(=O)CCCCCC(=O)OCC/C=C\CCCCC)COC(=O)CCC(CCCCCC)OC(=O)NCCN1CCCC1 (stereo not drawn) [Compound 16, O7-[2-[7-(2-butyloctanoyloxy)heptanoyloxymethyl]-2-[[7-[(Z)-non-3-enoxy]-7-oxo-heptanoyl]oxymethyl]-3-[4-(2-pyrrolidin-1-ylethylcarbamoyloxy)decanoyloxy]propyl]O1-[(Z)-non-3-enyl]heptanedioate]									PDI N/P:6 ([2]; Formulation F3, N/P 6): 0.04; Size (nm) N/P:6 ([2]; Formulation F3, N/P 6): 92 ± 0 nm; PDI N/P:6 ([2]; Formulation F4, N/P 6): 0.15; Size (nm) N/P:6 ([2]; Formulation F4, N/P 6): 64 ± 0 nm
97	100	99	99	99	99	81.1	0.066	0.04	67 ± 1	0.02	78 ± 1	CCCCCCC(CCC(=O)OCC(COC(=O)CCCCCCOC(=O)C(CCCC)CCCCCC)(COC(=O)CCCCCCOC(=O)C(CCCC)CCCCCC)COC(=O)CCCCCCOC(=O)C(CCCC)CCCCCC)OC(=O)NCCN1CCCC1 (stereo not drawn) [Compound 18, [7-[2,2-bis[7-(2-butyloctanoyloxy)heptanoyloxymethyl]-3-[4-(2-pyrrolidin-1-ylethylcarbamoyloxy)decanoyloxy]propoxy]-7-oxo-heptyl]2-butyloctanoate]									EE % [1, 5]: 98%; PDI [2, 5]: 0.059; Particle Size (nm) [2, 5]: 92.2 nm; PDI N/P:6 ([2]; Formulation F3, N/P 6): 0.03; Size (nm) N/P:6 ([2]; Formulation F3, N/P 6): 96 ± 2 nm; PDI N/P:6 ([2]; Formulation F4, N/P 6): 0.05; Size (nm) N/P:6 ([2]; Formulation F4, N/P 6): 65 ± 2 nm
												CCCCC/C=C\CCOC(=O)CCCCC(=O)OCC(COC(=O)CCCCC(=O)OCC/C=C\CCCCC)(COC(=O)CCC(CCCCCC)OC(=O)NCCN1CCCC1)COC(=O)C12CCC(F)(CC1)CC2 (stereo not drawn) [Compound 93, O6-[2-[(4-fluorobicyclo[2.2.2]octane-1-carbonyl)oxymethyl]-2-[[6-[(Z)-non-3-enoxy]-6-oxo-hexanoyl]oxymethyl]-3-[4-(2-pyrrolidin-1-ylethylcarbamoyloxy)decanoyloxy]propyl]O1-[(Z)-non-3-enyl]hexanedioate]	27.8 p/s (×10^6)	1.3 p/s (×10^6)	3.5 p/s (×10^6)	528.7 p/s (×10^6)	34.3 p/s (×10^6)	11.0 p/s (×10^6)	25.8 p/s (×10^6)	136.6 p/s (×10^6)	
												CCCCC/C=C\CCOC(=O)CCCCC(=O)OCC(COC(=O)CCCCC(=O)OCC/C=C\CCCCC)(COC(=O)CCC(CCCCCC)OC(=O)NCCN1CCCC1)COC(=O)C1(C2CCCCC2)CCCCC1 (stereo not drawn) [Compound 96, O6-[2-[(1-cyclohexylcyclohexanecarbonyl)oxymethyl]-2-[[6-[(Z)-non-3-enoxy]-6-oxo-hexanoyl]oxymethyl]-3-[4-(2-pyrrolidin-1-ylethylcarbamoyl-oxy)decanoyloxy]propyl]O1-[(Z)-non-3-enyl]hexanedioate]	3.4 p/s (×10^6)	0.4 p/s (×10^6)	0.9 p/s (×10^6)	213.0 p/s (×10^6)	9.0 p/s (×10^6)	11.9 p/s (×10^6)	0.9 p/s (×10^6)	6.6 p/s (×10^6)	
												CCCCC/C=C\CCOC(=O)CCCCC(=O)OCC(COC(=O)CCCCC(=O)OCC/C=C\CCCCC)(COC(=O)CCC(CCCCCC)OC(=O)NCCN1CCCC1)COC(=O)[C@]12CC[C@H](CC1)C2 (stereo partly drawn) [Compound 99, O6-[2-[[6-[(Z)-non-3-enoxy]-6-oxo-hexanoyl]oxymethyl]-2-(norbornane-1-carbonyloxymethyl)-3-[4-(2-pyrrolidin-1-ylethylcarbamoyloxy)decanoyloxy]propyl]O1-[(Z)-non-3-enyl]hexanedioate]	7.2 p/s (×10^6)	0.4 p/s (×10^6)	1.2 p/s (×10^6)	177.0 p/s (×10^6)	31.4 p/s (×10^6)	6.5 p/s (×10^6)	4.3 p/s (×10^6)	47.5 p/s (×10^6)	
												CCCCC/C=C\CCOC(=O)CCCCC(=O)OCC(COC(=O)CCCCC(=O)OCC/C=C\CCCCC)(COC(=O)CCC(CCCCCC)OC(=O)NCCN1CCCC1)COC(=O)C1CC2(C1)CC(F)(F)C2 (stereo not drawn) [Compound 100, O6-[2-[(2,2-difluorospiro[3.3]heptane-6-carbonyl)oxymethyl]-2-[[6-[(Z)-non-3-enoxy]-6-oxo-hexanoyl]oxymethyl]-3-[4-(2-pyrrolidin-1-ylethylcarbamoyloxy)decanoyloxy]propyl]O1-[(Z)-non-3-enyl]hexanedioate]	13.8 p/s (×10^6)	0.7 p/s (×10^6)	2.3 p/s (×10^6)	273.0 p/s (×10^6)	37.8 p/s (×10^6)	4.0 p/s (×10^6)	25.2 p/s (×10^6)	163.7 p/s (×10^6)	
												CCCCC/C=C\CCOC(=O)CCCCC(=O)OCC(COC(=O)CCCCC(=O)OCC/C=C\CCCCC)(COC(=O)CCC(CCCCCC)OC(=O)NCCN1CCCC1)COC(=O)C12CCCC1C2 (stereo not drawn) [Compound 101, O6-[2-(bicyclo[3.1.0]hexane-1-carbonyloxymethyl)-2-[[6-[(Z)-non-3-enoxy]-6-oxo-hexanoyl]oxymethyl]-3-[4-(2-pyrrolidin-1-ylethylcarbamoyloxy)decanoyloxy]propyl]O1-[(Z)-non-3-enyl]hexanedioate]	9.7 p/s (×10^6)	0.8 p/s (×10^6)	0.9 p/s (×10^6)	306.7 p/s (×10^6)	26.5 p/s (×10^6)	5.2 p/s (×10^6)	14.3 p/s (×10^6)	53.2 p/s (×10^6)	
												CCCCC/C=C\CCOC(=O)CCCCC(=O)OCC(COC(=O)CCCCC(=O)OCC/C=C\CCCCC)(COC(=O)CCC(CCCCCC)OC(=O)NCCN1CCCC1)COC(=O)C1CCC2C(C1)C2(F)F (stereo not drawn) [Compound 103, O6-[2-[(7,7-difluoronorcarane-3-carbonyl)oxymethyl]-2-[[6-[(Z)-non-3-enoxy]-6-oxo-hexanoyl]oxymethyl]-3-[4-(2-pyrrolidin-1ylethylcarbamoyloxy)decanoyloxy]propyl]O1-[(Z)-non-3-enyl]hexanedioate]									Organ Mean Total Flux Femur (mouse organs; Mouse 13, dose 0.5 mg/kg): 26.0 p/s (×10^6); Organ Mean Total Flux Heart (mouse organs; Mouse 13, dose 0.5 mg/kg): 0.8 p/s (×10^6); Organ Mean Total Flux Kidney (mouse organs; Mouse 13, dose 0.5 mg/kg): 2.4 p/s (×10^6); Organ Mean Total Flux Liver (mouse organs; Mouse 13, dose 0.5 mg/kg): 444.3 p/s (×10^6); Organ Mean Total Flux Lung (mouse organs; Mouse 13, dose 0.5 mg/kg): 16.0 p/s (×10^6); Organ Mean Total Flux Muscle (mouse organs; Mouse 13, dose 0.5 mg/kg): 4.5 p/s (×10^6); Organ Mean Total Flux Pancreas (mouse organs; Mouse 13, dose 0.5 mg/kg): 13.5 p/s (×10^6); Organ Mean Total Flux Spleen (mouse organs; Mouse 13, dose 0.5 mg/kg): 161.3 p/s (×10^6)
